Test results taken from patent US6623741B1, “Methods and compositions for inhibition of membrane fusion-associated events including RSV transmission” (Trimeris, Inc., priority 2000, dated 2003).
“And” between values parts separate entries of the source, which are not always exact repeats. Equal values may be shown once.

Experiments:
[1] = molecular target: T1, MBP fusion protein containing the ectodomain of the HIV-1 fusion protein gp41 (M41Δ178) (Human immunodeficiency virus type 1 group M subtype B, UniProt P03377); details: control for non-specific binding
T1 construct: made by cloning the DNA fragment corresponding to gp41 amino acids 540-642 into the Xmn I site of pMal-p2; made in house
T1 sequence (P03377 540-642, stated change not applied): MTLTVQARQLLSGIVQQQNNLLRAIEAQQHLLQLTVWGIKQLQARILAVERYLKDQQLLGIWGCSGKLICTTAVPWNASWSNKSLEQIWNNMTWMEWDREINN
Protocol: (§1) Mixtures were treated with 5 μg/ml proteinase-K (Sigma, St. Louis, Mo.) or an equivalent volume of buffer, vortexed and then incubated for one hour at 37° C. Phenyl methyl sulfonyl fluoride (PMSF, Boehringer Mannheim, Indianapolis, Ind.) was added to achieve a 2 mM final concentration to stop proteolytic digestion. 20 μl of each sample was removed and added to 10 μl of a sample buffer (New England Biolabs, Boston, Mass.) containing 6 w/v% Sodium Dodecyl Sulfate (DDS), DTT, 187.5 mM TRIS, 30% glycerol and bromophenol blue. The mixtures were heated for five minutes at 90° C. 15 μl of the samples were run on a 10-20% Tricine polyacrylamide gel (Novex, San Diego, Calif.), stained with Coomassie brilliant blue and destained with a 10% methanol-10% acetic acid mixture (Fisher, Norcross, Ga.).

[2] = molecular target: T2, DP107-like domain of the RSV F1-protein (MF5.1 fusion protein) (Human respiratory syncytial virus A, UniProt P03420); assay: biochemical; format: binding; details: binding affinity for the DP107-like domain of RSV F1 protein
T2 construct: made in house
T2 sequence (P03420 142-302): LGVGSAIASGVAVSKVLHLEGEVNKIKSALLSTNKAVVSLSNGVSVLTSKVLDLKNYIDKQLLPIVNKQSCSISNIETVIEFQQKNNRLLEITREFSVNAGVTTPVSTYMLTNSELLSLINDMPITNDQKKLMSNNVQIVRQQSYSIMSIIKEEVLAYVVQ
Protocol: After incubation and washing, unbound Fab-d is removed from the plates and bound Fab-d is quantitated. A no-inhibitor control should also be conducted.
Such an assay takes advantage of accepted radioligand and receptor binding principles. (See, for example, Yamamura, H. I. et al., 1985, “Neurotransmitter Receptor Binding”, 2nd ed., Raven Press, NY.) As above, M41Δ78 is immobilized onto a solid support such as a microtiter well. […] Specific binding to M41Δ78 is defined as the difference of the binding of the labeled DP178 preparation in the microtiter wells (totals) and the binding in identical wells containing, in addition, excess unlabeled DP178 (nonspecifics).
Specifically, the DNA sequence corresponding amino acid residues 142-302 of the RSV F1 protein was amplified by PCR and cloned into the Xmn I site of the expression vector pMal-p2 (New England Biolab) to give MF5.1. These amino acid residues correspond to the extracellular domain of the RSV F1 protein including its DP107 region but excluding the DP178 region.
Cell fusion assays were performed with each of the peptides as described in Section 17 above.

[3] = Circular dichroism spectroscopy (helicity, thermal stability); format: physicochemical; details: 10 and 50 μM
Protocol: Circular Dichroism Spectroscopy:
Circular Dichroism (CD) spectra were obtained using an AVIV Associates 62DS spectrometer equipped with a thermoelectric temperature controller. Spectra were obtained in 0.1, 0.5 and 1.0 cm quartz cells at 1° C. with 0.5 nm steps from 200 to 260 nm, 1.5 nm bandwidth and an averaging time of 4 sec/step. After the cell/buffer blank was subtracted, spectra were smoothed using a third-order least-squares polynomial fit with a conservative (5-10 point) window size to give random residuals. Mixing experiments were performed by comparing the spectrum of the two peptides mixed together in a 0.1 cm path length cell at the desired concentrations (referred to herein as the “experimental” spectrum) to the sum of the individual spectra of the peptides, each solution in a 0.1 cm path length cell (referred to herein as the “model spectrum” for no peptide interaction or “model for no interaction”).
Raw ellipticity values were converted to mean residue ellipticity using standard methods (Cantor & Schimmel, 1980, Biophysical Chemistry Part II: Techniques for the Study of Biological Structure and Function, W.H. Freeman and Co., New York). Conversions for the mixing experiment spectra were performed using a peptide length corresponding to the average of the two peptides. Thermal stability measurements were performed in 2° C. steps, with 1 minute equilibration times. Spectra were smoothed, converted to mean residue ellipticity, and the corresponding value at 222 nm noted from each spectrum. Percent helicity values were calculated using single value decomposition with a basis set of 33 protein spectra (Johnson & Curtis, 1990, Proteins: Structure, Function and Genetics 7:205-214).

HR1 domain of RSV-F1 [4] = molecular target: T3, HR1 domain of RSV-F1 (Human respiratory syncytial virus A, UniProt P03420); format: binding
T3 construct: made in house
T3 sequence (P03420 142-302): as above
Protocol: Proteinase-K Protection Experiments:
as §1

HR1 domain of RSV-F1 [5] = format: binding, respiratory syncytial virus; details: 5 μg/ml proteinase-K, one hour at 37° C.
Protocol: Proteinase-K Protection Experiments:
as §1

RSV = assay: Anti-RSV antiviral activity assay (syncytial formation, HEp2 cells); format: cell-based, respiratory syncytial virus; details: purified peptides
Protocol: Anti-RSV Antiviral Activity Assays:
The assay utilized herein tested the ability of the peptides to disrupt the ability of HEp2 cells acutely infected with RSV (i.e., cells which are infected with a multiplicity of infection of greater than 2) to fuse and cause syncytial formation on a monolayer of uninfected an uninfected line of Hep-2 cells. The lower the observed level of fusion, the greater the antiviral activity of the peptide was determined to be. […]
After incubation, cells in control wells were checked for fusion centers, media was removed from the wells, followed by addition, to each well, of either Crystal Violet stain or XTT. […] The number of syncytia per well were then counted, using a dissecting microscope.
With respect to XTT (2,3-bis[2-Methoxy-4-nitro-5-sulfophenyl]-2H-tetrazolium-5-carboxyanilide inner salt), 50 μl XTT (1 mg/ml in RPMI buffered with 100 mM HEPES, pH 7.2-7.4, plus 5% DMSO) were added to each well. The OD450/690 was measured (after blanking against growth medium without cells or reagents, and against reagents) according to standard procedures. […]

CC[C@H](C)[C@H](NC(=O)[C@H](Cc1ccccc1)NC(=O)[C@H](C)NC(=O)[C@H](CC(C)C)NC(=O)[C@H](CO)NC(=O)[C@H](CCC(N)=O)NC(=O)[C@H](CC(N)=O)NC(=O)[C@@H](NC(=O)[C@H](CCCCN)NC(=O)[C@H](CCC(=O)O)NC(=O)[C@H](CC(N)=O)NC(=O)[C@@H](NC(=O)[C@H](CCC(N)=O)NC(=O)[C@H](CO)NC(=O)[C@@H](NC(=O)[C@H](CO)NC(=O)[C@H](C)NC(=O)[C@H](CC(=O)O)NC(=O)[C@H](Cc1ccccc1)NC(=O)[C@H](CCC(=O)O)NC(=O)[C@H](CC(=O)O)NC(=O)[C@H](CO)NC(=O)[C@@H]1CCCN1C(=O)[C@H](Cc1ccccc1)NC(=O)[C@@H](NC(C)=O)C(C)C)[C@@H](C)CC)C(C)C)[C@@H](C)CC)C(=O)N[C@@H](CCCNC(=N)N)C(=O)N[C@@H](CCCCN)C(=O)N[C@@H](CO)C(=O)N[C@@H](CC(=O)O)C(=O)N[C@@H](CCC(=O)O)C(=O)N[C@@H](CC(C)C)C(=O)N[C@@H](CC(C)C)C(=O)N[C@@H](Cc1c[nH]cn1)C(=O)N[C@@H](CC(N)=O)C(=O)N[C@H](C(N)=O)C(C)C [Peptide T112]
binding to MBP fusion protein containing the HIV-1 gp41 ectodomain [1]: does not bind | Kd [2]: 2 nM and 1 nM | thermal stability (CD melting curves, in words) [3]: little thermal stability | helicity ([3]; PBS solution): less than 10% | binding to the HR1 domain of RSV-F1 and protection from proteolytic digestion (HR1 domain of RSV-F1 [4]): binds to the HR1 domain of RSV-F1 and thereby protects the domain from proteolytic digestion | proteinase-K digestion of the peptide alone (HR1 domain of RSV-F1 [5]): digest the peptide entiretly | anti-RSV antiviral activity (in words) (RSV): substantial antiviral activity
